Consider eleven molecules from ChEMBL document CHEMBL4342490, “Discovery of Potent and Selective MTH1 Inhibitors for Oncology: Enabling Rapid Target (In)Validation” (ACS Med Chem Lett, 2020).

Values after ≈ are worked out from the molar mass of the structure shown. Active and inactive are the calls of the source. No cut-off for these calls is given here.

Data set [1] concerns U2OS. Put plainly: Cytotoxicity against human U2OS cells assessed as reduction in cell viability incubated for 72 hrs by celltiter glo assay. (In general: Cellular ATP, detected with luciferase, serves as a proxy for viable cell number.)
In another data set the test system is SW480. Nature of the data set: Cytotoxicity against human SW480 cells assessed as reduction in cell viability incubated for 72 hrs by celltiter glo assay. As to conditions: SW480, 72 h.
Data set [2] can be described thus: Dissociation constant, pKa of the compound. In kind it is physicochemical.
A short description of data set [3]: Permeability across apical to basolateral side in human Caco2 cells. The following applies: Caco-2.
Data set [4] can be described thus: Permeability across basolateral to apical side in human Caco2 cells. In kind it is ADME, cell-based. The following applies: Caco-2, read-out: permeability. Background: Passage across Caco-2 layers is used to estimate intestinal permeability.
Data set [5] is described as follows: Lipophilicity, logD of the compound at pH 7.4. In kind it is physicochemical. The following applies: buffer.
Data set [6] in a line: Chemical stability of compound at pH 6 to 9 at 40 degreeC. The format is physicochemical. The following applies: buffer.
Data set [7] can be described thus: Glutathione reactivity of compound. In kind it is physicochemical.
The nature of data set [8]: Kinetic solubility of compound at pH 2. The following applies: buffer.
Data set [9] in a line: Kinetic solubility of compound at pH 7. The following applies: buffer.
The nature of data set [10]: Stability of compound in human plasma assessed as half life. The format is ADME, cell-free.
Data set [11] in a line: Stability of compound in rat plasma assessed as half life. The format is ADME, cell-free.
Data set [12] in a line: Cytotoxicity against human MT4 cells assessed as reduction in cell viability incubated for 72 hrs by celltiter glo assay. The format is cell-based.
Data set [13] deals with U2OS. Nature of the data set: Induction of DNA damage in human U2OS cells assessed as increase in gammaH2AX foci formation at 20 uM incubated for 72 hrs by immunostaining based confocal microscopy. In kind it is functional, cell-based.
For data set [14], the target named is Oxidized purine nucleoside triphosphate hydrolase (Homo sapiens) (UniProt P36639). Put plainly: Inhibition of MTH1 in human U2OS cells assessed as activation of p53 at 2.25 uM incubated for 4 and 24 hrs by Peggy sue Western blot assay. The format is cell-based. (In western blotting, separated proteins are transferred to a membrane and probed.)
Data set [15] is described as follows: Oral bioavailability in Sprague-Dawley rat at 5 mg/kg. The format is ADME, organism-based. The following applies: in vivo.
Data set [16] can be described thus: Clearance in Sprague-Dawley rat at 5 mg/kg, po or 1 mg/kg, iv. The format is ADME, organism-based. The following applies: in vivo.
The nature of data set [17]: Volume of distribution in Sprague-Dawley rat at 5 mg/kg, po or 1 mg/kg, iv. The format is ADME, organism-based. The following applies: in vivo.
Data set [18] is described as follows: Half life in Sprague-Dawley rat at 5 mg/kg, po or 1 mg/kg, iv. As to conditions: in vivo. The format is ADME, organism-based.
The target in data set [19] is Voltage-gated inwardly rectifying potassium channel KCNH2 (Homo sapiens, UniProt Q12809). Nature of the data set: Inhibition of human ERG.
Chain of Voltage-gated inwardly rectifying potassium channel KCNH2 (Q12809 whole entry, canonical isoform): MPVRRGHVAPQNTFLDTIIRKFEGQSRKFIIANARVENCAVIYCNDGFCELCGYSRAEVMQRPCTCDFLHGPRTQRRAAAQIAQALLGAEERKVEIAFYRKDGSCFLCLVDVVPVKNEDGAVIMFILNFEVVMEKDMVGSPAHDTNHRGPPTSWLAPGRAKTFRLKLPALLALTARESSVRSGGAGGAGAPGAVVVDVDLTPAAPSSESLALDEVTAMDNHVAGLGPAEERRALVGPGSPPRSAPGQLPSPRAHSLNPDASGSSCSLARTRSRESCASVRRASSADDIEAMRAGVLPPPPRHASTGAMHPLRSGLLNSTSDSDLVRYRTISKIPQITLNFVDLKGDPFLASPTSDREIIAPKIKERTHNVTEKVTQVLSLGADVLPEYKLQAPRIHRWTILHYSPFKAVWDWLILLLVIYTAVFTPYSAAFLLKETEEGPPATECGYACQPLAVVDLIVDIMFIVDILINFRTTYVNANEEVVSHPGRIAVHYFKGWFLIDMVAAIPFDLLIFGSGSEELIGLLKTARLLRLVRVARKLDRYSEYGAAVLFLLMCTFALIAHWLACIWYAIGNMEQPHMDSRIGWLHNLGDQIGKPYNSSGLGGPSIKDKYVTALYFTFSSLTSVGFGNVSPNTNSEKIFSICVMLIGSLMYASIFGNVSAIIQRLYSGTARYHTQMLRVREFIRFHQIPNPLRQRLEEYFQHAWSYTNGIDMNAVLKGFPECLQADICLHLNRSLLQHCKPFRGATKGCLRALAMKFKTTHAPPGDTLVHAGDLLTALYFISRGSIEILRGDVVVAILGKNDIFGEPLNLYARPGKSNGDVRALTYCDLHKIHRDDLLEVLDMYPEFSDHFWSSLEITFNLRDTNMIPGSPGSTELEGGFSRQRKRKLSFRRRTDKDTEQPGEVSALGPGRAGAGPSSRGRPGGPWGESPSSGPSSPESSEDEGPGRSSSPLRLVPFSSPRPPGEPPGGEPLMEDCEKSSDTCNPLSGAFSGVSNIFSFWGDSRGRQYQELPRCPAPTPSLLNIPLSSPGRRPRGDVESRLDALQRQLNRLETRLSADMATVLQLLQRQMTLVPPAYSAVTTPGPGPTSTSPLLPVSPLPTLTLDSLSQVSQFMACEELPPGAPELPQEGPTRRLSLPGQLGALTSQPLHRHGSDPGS
For data set [20], the target named is CYP isoform (not specified) (Homo sapiens, UniProt P04798+P05177+P05181+P08684+P10632+P10635+P11509+P11712+P13584+P20813+P20815+P20853+P24462+P24903+P33260+P33261+P51589+P78329+P98187+Q02928+Q08477+Q16678+Q16696+Q5TCH4+Q6VVX0+Q7Z449+Q8TAV3+Q96SQ9+Q9HB55). Put plainly: Inhibition of CYP isoform (unknown origin). The format is ADME, protein assay.
Data set [21] deals with T1, Nuclear receptor subfamily 1 group I member 2 (Homo sapiens, UniProt O75469).
T1 sequence (O75469 whole entry): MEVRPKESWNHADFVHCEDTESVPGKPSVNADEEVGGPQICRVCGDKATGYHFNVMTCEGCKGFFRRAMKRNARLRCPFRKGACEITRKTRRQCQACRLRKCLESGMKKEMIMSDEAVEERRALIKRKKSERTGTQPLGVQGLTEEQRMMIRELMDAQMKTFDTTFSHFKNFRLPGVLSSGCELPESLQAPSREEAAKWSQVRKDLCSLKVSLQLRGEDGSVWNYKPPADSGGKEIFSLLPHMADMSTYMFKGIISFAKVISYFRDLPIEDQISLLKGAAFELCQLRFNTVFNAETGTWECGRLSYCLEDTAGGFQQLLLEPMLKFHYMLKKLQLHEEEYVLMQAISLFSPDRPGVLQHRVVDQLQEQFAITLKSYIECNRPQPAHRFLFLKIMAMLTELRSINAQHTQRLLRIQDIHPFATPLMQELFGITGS
Put plainly: Activation of human PXR at 15 uM.

For orientation: EC50 means the concentration giving half of the maximal effect. As to `Nc1nc(NC2CC2)cc(-c2cccc(Cl)c2Cl)n1`, the figures for the EC50 in the data set with U2OS [1] and in the data set with SW480 were 5.6 µM and 9.7 µM, respectively.

By pKa is commonly meant the pH at which an ionisable group is half protonated. What is called Papp A→B is the apparent permeability from the apical to the basolateral side of a cell layer. Low values mean slow passage, high ones fast passage. A word on the logD: it is the decadic logarithm of the distribution of all forms, ionised or not, between an organic phase and buffer at a given pH. What is called solubility (kinetic) is solubility judged after dilution from a stock solution rather than from solid. For orientation: half-life means how long it takes for the measured level to halve. By CC50 is commonly meant the concentration that lowers cell viability or growth by half. For the molecule `CC(=O)Nc1cc2c(c(-c3cccc(C)c3C)n1)CCCN2`, the concentration for a half-maximal effect (EC50) with U2OS [1] was 8.05 µM. In data set [2], this molecule came in with a pKa of 7.5. In data set [3], this molecule yielded a Papp A→B of 35 ×10⁻⁶ cm/s. The Papp B→A in [4] is 32 ×10⁻⁶ cm/s. The molecule further gave a logD in data set [5] of 2.5. Moreover, the Stability result in data set [6] is “Stable”. Besides, the Activity result in data set [7] is “Not Active”. Moreover, the solubility (kinetic) turned out to be 97 µM (≈ 28.7 µg/mL) in data set [8] and 70 µM (≈ 20.7 µg/mL) in data set [9]. The half-life came out at 4.2 h in data set [10] and 7.43 h in [11]. In [12], the CC50 at 72 h turned out to be 19 µM. In the data set on U2OS [13], the outcome was inactive.

`CC(=O)Nc1cc2ncccc2c(-c2cccc(C)c2C)n1`: in data set [2], the pKa came out at 3.5. This molecule also returned a Papp A→B in data set [3] of 37 ×10⁻⁶ cm/s. For the same molecule, the Papp B→A in data set [4] stood at 45 ×10⁻⁶ cm/s.

Turning to `C[C@H](Oc1cc(-c2cnn(C3CCNCC3)c2)cnc1N)c1c(Cl)ccc(F)c1Cl`, the EC50 in the data set with U2OS [1] was 6.8 µM.

As to `CNc1cc(-c2cccc(Cl)c2Cl)nc(N)n1`, the EC50 is 0.7 to 1.8 µM with U2OS [1] and 3 µM in the data set on SW480. In addition, in data set [12], the CC50 at 72 h was 0.726 µM. For the same molecule, the outcome (in data set [14]; in the data set with U2OS [13]) was Active.

As to `COc1ccc2nc3[nH]nc(C)c3c(NCCOCCO)c2c1`, in the data set on U2OS [1], the concentration giving a half-maximal response (EC50) is greater than 20 µM.

As usually defined, the bioavailability is the share of a dose that reaches the circulation, judged against a reference dose that is usually intravenous. Read a high bioavailability as much systemic uptake. As a reminder, the IC50 is the concentration that gives 50% inhibition. A higher IC50 goes with weaker potency. As to `Nc1nc2cccc(-c3cccc(Cl)c3Cl)n2n1`, in the data set with U2OS [1], the EC50 turned out to be 20.3 µM. In data set [3], this molecule gave a Papp A→B of 41 ×10⁻⁶ cm/s. Moreover, in data set [4], the Papp B→A was 34 ×10⁻⁶ cm/s. Also, the solubility (kinetic) is 93 µM (≈ 26 µg/mL) in data set [8] and 74 µM (≈ 20.7 µg/mL) in [9]. The molecule also registered a bioavailability in data set [15] of 86%. Also, the clearance in data set [16] was 12.2 mL/min/kg. Further, the Vd in [17] came out at 2.7 L/kg. For the same molecule, the half-life in [18] is 3.2 h. The IC50 in data set [19] and in data set [20] was greater than 25 µM throughout. Moreover, in data set [21], the Activity result is recorded as “Not Active”. In addition, the CC50 at 72 h in data set [12] is greater than 50 µM. Further, in the data set with U2OS [13], the result was inactive.

`O=C1c2c(O)ccc(O)c2C(=O)c2c(NCCNCCO)ccc(NCCNCCO)c21`: the inhibition entry in data set [14] is “Active”.

Consider `CNc1cc(N2CCCCC2)nc(N)n1`, for which the result in the data set on U2OS [13] was inactive.

Consider `Nc1nc2c(-c3cccc(Cl)c3Cl)cccc2[nH]1`, for which the EC50 in the data set on U2OS [1] amounted to 14.4 µM.

Take `CNc1cc(N(C)[C@@H](C)c2ccccc2)nc(N)n1`: the EC50 in the data set on U2OS [1] is 24.9 µM.
